Data: ChEMBL document CHEMBL1140806, “Optimization of the heterocyclic core of the quinazolinone-derived CXCR3 antagonists” (Bioorg Med Chem Lett, 2008)

Key:
[1] = target: T1, C-X-C chemokine receptor type 3 (Homo sapiens, UniProt P49682); assay: Displacement of [125I]IP-10 from CXCR3 receptor expressed in human PBMC in RPMI-1640 buffer supplemented with 0.5% BSA
T1 sequence (P49682 whole entry): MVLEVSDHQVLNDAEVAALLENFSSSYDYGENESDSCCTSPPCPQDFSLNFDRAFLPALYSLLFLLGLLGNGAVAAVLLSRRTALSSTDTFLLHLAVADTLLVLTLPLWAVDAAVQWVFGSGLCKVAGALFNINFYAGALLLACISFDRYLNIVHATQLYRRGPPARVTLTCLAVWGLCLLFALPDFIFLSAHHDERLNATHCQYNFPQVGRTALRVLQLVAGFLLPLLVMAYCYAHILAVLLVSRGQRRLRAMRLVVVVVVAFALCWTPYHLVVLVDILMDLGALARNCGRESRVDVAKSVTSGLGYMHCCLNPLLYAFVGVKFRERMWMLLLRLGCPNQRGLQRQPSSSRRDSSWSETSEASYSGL

[2] = target: T1, C-X-C chemokine receptor type 3; assay: Displacement of [125I]IP-10 from CXCR3 receptor expressed in human PBMC in EDTA-anti-coagulated human plasma
[3] = Clearance in rat at 0.5 mg/kg, iv; assay type: ADME, organism-based; design: dose 0.5 mg/kg, route intravenous; conditions: in vivo
[4] = Oral bioavailability in rat at 2 mg/kg; assay type: ADME, organism-based; conditions: in vivo
[5] = Mean residence time in rat at 0.5 mg/kg, iv; assay type: ADME, organism-based; design: dose 0.5 mg/kg, route intravenous; conditions: in vivo

SMILES	IC50 [1] [nM]	IC50 [2] [nM]	clearance [3] [mL/min/kg]	bioavailability [4] [%]	MRT [5] [min]	Ki [1] [nM]
CCS(=O)(=O)CCN(C(=O)Cc1ccc(F)c(C(F)(F)F)c1)[C@H](C)c1nc2ccccc2nc1-c1ccc(C#N)cc1	9	121				
CCS(=O)(=O)CCN(C(=O)Cc1ccc(F)c(C(F)(F)F)c1)[C@H](C)c1nc2ncccc2c(=O)n1-c1ccc(C#N)cc1			39.7	47	31.8	
CCS(=O)(=O)CCN(C(=O)Cc1ccc(F)c(C(F)(F)F)c1)[C@H](C)c1nc2ncccn2c1-c1ccc(C#N)cc1		79				
CCS(=O)(=O)CCN(C(=O)Cc1ccc(F)c(C(F)(F)F)c1)[C@H](C)c1nc2ccccc2cc1-c1ccc(C#N)cc1	0.8	21	42.2	17	90	
CCS(=O)(=O)CCN(C(=O)Cc1ccc(F)c(C(F)(F)F)c1)[C@H](C)c1nc2ccccn2c(=O)c1-c1ccc(C#N)cc1			4	24	84	
CCS(=O)(=O)CCN(C(=O)Cc1ccc(F)c(C(F)(F)F)c1)[C@H](C)c1nc2ccccn2c1-c1ccc(C#N)cc1		21	36.3	24	15.6	3
CCS(=O)(=O)CCN(C(=O)Cc1ccc(F)c(C(F)(F)F)c1)[C@H](C)c1cc2ccccc2nc1-c1ccc(C#N)cc1	5	115				
CCS(=O)(=O)CCN(C(=O)Cc1ccc(F)c(C(F)(F)F)c1)[C@H](C)c1nc2ncccc2cc1-c1ccc(C#N)cc1	2	27	39.7	31	22.2	
CCS(=O)(=O)CCN(C(=O)Cc1ccc(F)c(C(F)(F)F)c1)[C@H](C)c1nn2ccccc2c1-c1ccc(C#N)cc1	18	523				
CCS(=O)(=O)CCN(C(=O)Cc1ccc(F)c(C(F)(F)F)c1)[C@H](C)c1nc2ccccc2n1-c1ccc(C#N)cc1	6	35				
CCS(=O)(=O)CCN(C(=O)Cc1ccc(F)c(C(F)(F)F)c1)[C@H](C)c1nc2c(c(=O)n1-c1ccc(C#N)cc1)CCCN2C	4	60	63		21	
